# Assay results taken from patent publication US9427415B2, “Methods and compositions for modifying sensorial perception” (The Procter & Gamble Company, priority 2014, dated 2016).
# Read-outs that look alike come from different tables or passages of the source.
# What was measured:
# human TRPA1 = target: T1, human TRPA1 (Homo sapiens, UniProt O75762, K186N/R3C/R58T); experiment: Intracellular calcium (Fluo-4, FLIPR) activation of TRPA1 cells by GRAS compounds; type: cell-based; conditions: relative to AITC 30 μM, read-out: A1 activation, % of agonist value; for activation at 1000 µM: 1 mM;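 as to all read-outs here: TRPA1-expressing cells, fluorescence read on a FLIPR Tetra (ex 488 nm, em 514 nm) every 2 s for 10 min after compound addition, baseline subtracted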
# T1 construct: expressed in transfected cells; pcDNA3 control cells
# human TRPV1 = target: T2, human TRPV1 (Homo sapiens, UniProt Q8NER1, M315I/T336M); experiment: Intracellular calcium (Fluo-4, FLIPR) activation of TRPV1 cells by GRAS compounds; type: cell-based; conditions: relative to capsaicin 350 nM; for activation at 1000 µM / activation at 100 µM: read-out: V1 activation, % of agonist value;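 as to all read-outs here: TRPV1-expressing cells, FLIPR fluorescence at 488/514 nm with baseline subtracted, sampled every 2 s for 10 min after adding compound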
# T2 construct: expressed in transfected cells; pcDNA3 control cells
# TRPA1V1 = experiment: Intracellular calcium (Fluo-4, FLIPR) activation of TRPA1V1 cells (co-expressing TRPA1 and TRPV1) by GRAS compounds; type: cell-based, human;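 also: HEK293 cells co-expressing TRPA1 and TRPV1, fluorescence read at 488/514 nm after baseline subtraction, recorded every 2 s over 10 min, ionomycin 10 µM and buffer as controls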
# Description: TRPV1, TRPA1, TRPA1V1 and pcDNA3 cells were grown in 15 mL growth medium [high glucose DMEM (Dulbecco's modification of Eagle's medium) supplemented with 10% FBS (fetal bovine serum), 100 μg/mL penicillin/streptomycin, 100 μg/mL G418] in a 75 cm^2 flask for 3 days in a mammalian cell culture incubator at 33° C. and 5% CO2. TRP Cells were detached with 8 mL of PBS (without calcium or magnesium); for pcDNA3 cells, trypsin was used for releasing the cells. The detached cells were spun at low speed (800-900 rpm for 3 min) to pellet the cells. […] The cells were washed once with 45 mL assay buffer (1×HBSS, 20 mM HEPES) by low speed centrifugation (800-900 rpm for 3 min) and resuspended in 11 mL of the assay buffer in a reagent reservoir. […] The plates were set at room temperature for 30 min. The plates were read in a FLIPR^TETRA instrument (Molecular Devices, Sunnyvale, Calif.) at λex 488 nm and λem 514 nm to record baseline fluorescence following which 20 μL of test material at 1 mM or 100 μM final concentration for pure compounds in a GRAS library or 0.004% for extracts. For agonists, capsaicin 350 nM and AITC at 30 μM; and for controls, ionomycin 10 μM and buffer alone) was added to each well using the dispenser provided in the FLIPR. The data point was recorded every 2 seconds for a total of 10 min.
# Average value for activation from three independent assay plates are presented as % of agonist value (AITC, 30 μM for TRPA1 and capsaicin, 350 nM for TRPV1. For TRPA1V1, we used AITC, 30 μM or capsaicin, 350 nM depending on if the compound is an A1 agonist or a V1 agonist. For compounds that activated both A1 and V1, we used AITC for normalization). Variation among triplicates was within 10% of each other. Assayed at 1 mM for pure compounds and 0.004% for extracts.
# [1] = Table 1(g), 1 mM, relative to capsaicin 350 nM
# [2] = Table 1(h), 1 mM, relative to capsaicin 350 nM
# [3] = Table 1(h), 100 μM (marked *), relative to capsaicin 350 nM
# [4] = Table 1(f), 1 mM, relative to capsaicin 350 nM
# T1 sequence (O75762 whole entry R3C/R58T/K186N): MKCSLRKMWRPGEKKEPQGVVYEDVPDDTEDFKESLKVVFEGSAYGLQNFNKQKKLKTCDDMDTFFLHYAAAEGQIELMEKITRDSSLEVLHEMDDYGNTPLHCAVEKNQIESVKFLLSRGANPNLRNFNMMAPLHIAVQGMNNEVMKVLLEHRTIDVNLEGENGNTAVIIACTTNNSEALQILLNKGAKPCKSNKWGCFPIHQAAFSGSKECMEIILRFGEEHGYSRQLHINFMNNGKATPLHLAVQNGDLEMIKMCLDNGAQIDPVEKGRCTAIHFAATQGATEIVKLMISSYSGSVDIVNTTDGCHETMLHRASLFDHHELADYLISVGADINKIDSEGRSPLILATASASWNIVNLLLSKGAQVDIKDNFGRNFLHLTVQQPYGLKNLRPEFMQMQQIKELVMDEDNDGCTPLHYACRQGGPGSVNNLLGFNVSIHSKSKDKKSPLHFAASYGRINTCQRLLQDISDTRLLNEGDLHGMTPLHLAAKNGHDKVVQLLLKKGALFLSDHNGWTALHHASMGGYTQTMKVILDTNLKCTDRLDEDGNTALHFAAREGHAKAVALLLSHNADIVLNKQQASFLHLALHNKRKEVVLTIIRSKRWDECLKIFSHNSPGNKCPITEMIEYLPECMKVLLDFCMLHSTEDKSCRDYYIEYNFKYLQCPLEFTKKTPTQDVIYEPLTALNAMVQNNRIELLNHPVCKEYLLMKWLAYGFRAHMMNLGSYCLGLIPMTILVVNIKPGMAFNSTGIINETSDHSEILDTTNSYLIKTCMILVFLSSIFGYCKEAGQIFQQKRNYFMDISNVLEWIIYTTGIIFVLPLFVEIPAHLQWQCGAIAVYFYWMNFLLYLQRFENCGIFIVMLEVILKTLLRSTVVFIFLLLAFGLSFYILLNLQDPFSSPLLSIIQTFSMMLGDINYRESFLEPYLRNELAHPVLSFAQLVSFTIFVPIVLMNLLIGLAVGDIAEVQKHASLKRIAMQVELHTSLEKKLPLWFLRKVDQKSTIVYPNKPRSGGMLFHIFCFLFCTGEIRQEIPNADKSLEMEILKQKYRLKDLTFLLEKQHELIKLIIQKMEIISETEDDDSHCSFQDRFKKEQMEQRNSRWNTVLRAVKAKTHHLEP
# T2 sequence (Q8NER1 whole entry M315I/T336M): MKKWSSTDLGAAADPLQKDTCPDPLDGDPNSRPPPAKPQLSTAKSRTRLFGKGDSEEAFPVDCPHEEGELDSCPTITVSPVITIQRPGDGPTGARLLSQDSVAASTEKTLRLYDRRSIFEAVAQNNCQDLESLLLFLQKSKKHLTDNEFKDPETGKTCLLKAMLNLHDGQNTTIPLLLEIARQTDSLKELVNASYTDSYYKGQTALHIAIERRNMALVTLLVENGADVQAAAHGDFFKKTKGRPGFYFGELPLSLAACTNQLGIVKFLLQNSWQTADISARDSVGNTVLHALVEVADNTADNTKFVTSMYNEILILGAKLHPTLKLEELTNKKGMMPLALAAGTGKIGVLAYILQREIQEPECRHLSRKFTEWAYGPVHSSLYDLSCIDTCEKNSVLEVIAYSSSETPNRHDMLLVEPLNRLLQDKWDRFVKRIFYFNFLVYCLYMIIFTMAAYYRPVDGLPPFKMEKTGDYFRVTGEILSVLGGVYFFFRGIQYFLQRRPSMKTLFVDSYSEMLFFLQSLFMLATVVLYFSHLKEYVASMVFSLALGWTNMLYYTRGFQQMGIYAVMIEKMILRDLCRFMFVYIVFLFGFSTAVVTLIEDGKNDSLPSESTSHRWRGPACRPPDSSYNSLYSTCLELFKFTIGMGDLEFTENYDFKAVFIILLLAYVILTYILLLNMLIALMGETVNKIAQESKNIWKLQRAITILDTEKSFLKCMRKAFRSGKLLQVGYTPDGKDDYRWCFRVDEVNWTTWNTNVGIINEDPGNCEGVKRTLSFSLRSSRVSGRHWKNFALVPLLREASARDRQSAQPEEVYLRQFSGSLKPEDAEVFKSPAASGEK
molecule,measurement,setting,value
CC1=C(O)C(=O)CO1 [4-Hydroxy-5-methyl-3-furanone],activation at 1000 µM,"human TRPA1; Table 1(a), average of three plates",58%
same,activation at 1000 µM,"human TRPV1; Table 1(a), 1 mM, average of three plates",40.5%
same,"A1V1 activation, % of agonist value","TRPA1V1; Table 1(a), 1 mM, relative to AITC 30 μM, average of three plates",38%
O=Cc1ccc(O)cc1 [4-Hydroxybenzaldehyde],activation at 100 µM,"human TRPA1; Table 1(a), 100 μM (*)",80.4%
same,activation at 1000 µM,human TRPA1; Table 1(c),63%
same,activation at 100 µM,"human TRPV1; Table 1(a), 100 μM (*)",123%
same,"A1V1 activation, % of agonist value","TRPA1V1; Table 1(a), 100 μM (*), relative to AITC 30 μM",163.2%
same,"A1V1 activation, % of agonist value","TRPA1V1; Table 1(c), 1 mM, relative to AITC 30 μM",60.3%
CC(O)CCc1ccccc1 (stereo not shown) [4-Phenyl-2-butanol],activation at 1000 µM,human TRPA1; Table 1(b),58.8%
same,activation at 1000 µM,"human TRPV1; Table 1(b), 1 mM",37.9%
same,"A1V1 activation, % of agonist value","TRPA1V1; Table 1(b), 1 mM, relative to AITC 30 μM",81.29%
CC1(C)[C@@H](O[C@H]2O[C@H](C(=O)O)[C@@H](O)[C@H](O)[C@H]2O[C@@H]2O[C@H](C(=O)O)[C@@H](O)[C@H](O)[C@H]2O)CC[C@]2(C)[C@H]3C(=O)C=C4[C@@H]5C[C@@](C)(C(=O)O)CC[C@]5(C)CC[C@@]4(C)[C@]3(C)CC[C@@H]12 [18beta-Glycyrrhizinic acid],"V1 activation, % of agonist value","human TRPV1; Table 1(g), 1 mM",100.9%
same,"A1V1 activation, % of agonist value",TRPA1V1; [1],162.7%
CC(C)[C@@H]1CC[C@@H](C)C[C@@H]1O [(+)-Neomenthol],"V1 activation, % of agonist value","human TRPV1; Table 1(h), 1 mM",68.8%
same,"A1V1 activation, % of agonist value",TRPA1V1; [2],44.8%
"CC(=O)S [Acetic acid, thio-]","V1 activation, % of agonist value","human TRPV1; Table 1(g), 1 mM",61.9%
same,"A1V1 activation, % of agonist value",TRPA1V1; [1],115.1%
O=C(O)CCCCC(=O)O [Adipic acid],activation at 1000 µM,"human TRPV1; Table 1(g), 1 mM",47.6%
same,"A1V1 activation, % of agonist value",TRPA1V1; [1],70.4%
COc1ccccc1 [Anisole],activation at 100 µM,"human TRPV1; Table 1(h), 100 μM (marked *)",48.3%
same,"A1V1 activation, % of agonist value",TRPA1V1; [3],34.7%
CCCCCCCCCC1CCCC(=O)O1 (stereo not shown) [Delta-tetradecalactone],"V1 activation, % of agonist value","human TRPV1; Table 1(g), 1 mM",33.0%
same,"A1V1 activation, % of agonist value",TRPA1V1; [1],61.7%
CCCCC1CCCCC(=O)O1 (stereo not shown) [Epsilon-Decalactone],"V1 activation, % of agonist value","human TRPV1; Table 1(f), 1 mM",47.7%
same,"A1V1 activation, % of agonist value",TRPA1V1; [4],52.9%
CSCc1ccco1 [Furfuryl methyl sulfide],activation at 1000 µM,"human TRPV1; Table 1(g), 1 mM",50.1%
same,"A1V1 activation, % of agonist value",TRPA1V1; [1],111.6%
"O=C([O-])[C@H](O)[C@@H](O)[C@H](O)[C@H](O)CO.[K+] [Gluconic acid, monopotassium salt]",activation at 1000 µM,"human TRPV1; Table 1(h), 1 mM",33%
same,"A1V1 activation, % of agonist value",TRPA1V1; [2],14.0%
c1ccc2[nH]ccc2c1 [Indole],activation at 1000 µM,"human TRPV1; Table 1(f), 1 mM",53.3%
same,"A1V1 activation, % of agonist value",TRPA1V1; [4],42.9%
CC(=O)CC(=O)OCC(C)C [Isobutyle acetoacetate],"V1 activation, % of agonist value","human TRPV1; Table 1(g), 1 mM",54.1%
same,"A1V1 activation, % of agonist value",TRPA1V1; [1],81.9%
O=C(O)[C@H](O)[C@@H](O)C(=O)O [L-(+)-Tartaric acid],"V1 activation, % of agonist value","human TRPV1; Table 1(h), 100 μM (marked *)",60.4%
same,"A1V1 activation, % of agonist value",TRPA1V1; [3],38.4%
CCCCCCCC(=O)O [Octanoic acid],activation at 1000 µM,"human TRPV1; Table 1(f), 1 mM",73.7%
same,"A1V1 activation, % of agonist value",TRPA1V1; [4],83.4%
O=C(/C=C/C=C/c1ccc2c(c1)OCO2)N1CCCCC1 [Piperine],activation at 1000 µM,"human TRPV1; Table 1(h), 1 mM",120%
same,"A1V1 activation, % of agonist value",TRPA1V1; [2],57.1%
O=C(O)c1ccc(O)c(O)c1 [Protocatechuic acid],activation at 1000 µM,"human TRPV1; Table 1(g), 1 mM",60.6%
same,"A1V1 activation, % of agonist value",TRPA1V1; [1],121.05%
O=C(O)C(O)C(O)C(=O)O (stereo not shown) [Tartaric acid],activation at 1000 µM,"human TRPV1; Table 1(h), 1 mM",55.8%
same,"A1V1 activation, % of agonist value",TRPA1V1; [2],29.6%
CC(C=O)=Cc1ccccc1 [alpha-Methylcinnamaldehyde],activation at 1000 µM,"human TRPV1; Table 1(g), 1 mM",54.6%
same,"A1V1 activation, % of agonist value",TRPA1V1; [1],104.4%
Cc1ccc(C=O)c(O)c1 [m-Homosalicylaldehyde],activation at 1000 µM,"human TRPV1; Table 1(g), 1 mM",56.5%
same,"A1V1 activation, % of agonist value",TRPA1V1; [1],140.7%
Tolylaldehyde glyceryl acetyl,"V1 activation, % of agonist value","human TRPV1; Table 1(g), 1 mM",53.0%
same,"A1V1 activation, % of agonist value",TRPA1V1; [1],110.7%
